Experimental data published in ChEMBL document CHEMBL1158288, “Antiinflammatory activity of coumarins from Santolina oblongifolia” (J Nat Prod, 1996).

Experiments:
[1] = Antiinflammatory activity in NMRI mouse macrophages assessed as inhibition of A23187-induced PGE2 release at 100 uM by Ellman's method relative to control; assay type: functional; conditions: Macrophage
[2] = Antiinflammatory activity in NMRI mouse macrophages assessed as inhibition of A23187-induced PGE2 release by Ellman's method; assay type: functional, cell-based; conditions: macrophage
[3] = Antiinflammatory activity in NMRI mouse macrophages assessed as inhibition of A23187-induced LTC4 release at 25 uM by Ellman's method relative to control; assay type: functional; conditions: Macrophage
[4] = Antiinflammatory activity in NMRI mouse macrophages assessed as inhibition of A23187-induced LTC4 release at 100 uM by Ellman's method relative to control; assay type: functional; conditions: Macrophage
[5] = Antiinflammatory activity in NMRI mouse macrophages assessed as inhibition of A23187-induced LTC4 release by Ellman's method; assay type: functional, cell-based; conditions: macrophage

Row | Compound | IC50 [2] [µmol] | IC50 [5] [µmol] | inhibition at 100 µM [1] [%] | inhibition at 25 µM [3] [%] | inhibition at 100 µM [4] [%]
1 | COc1ccc2ccc(=O)oc2c1 [HERNIARIN] | 84 |  | 65.7 | 2.94 | 
2 | O=c1ccc2cc(O)c(O)cc2o1 [ESCULETIN] | 11 | 18 | 71.7 | 71.2 | 

More lines, main results first:

Row | IC50 [2] [µmol] | IC50 [5] [µmol] | Compound | inhibition at 100 µM [1] [%] | inhibition at 25 µM [3] [%] | inhibition at 100 µM [4] [%]
3 | 77 |  | COc1cc2ccc(=O)oc2cc1O[C@@H]1O[C@H](CO)[C@@H](O)[C@H](O)[C@H]1O [SCOPOLIN] | 75.7 | 55 | 
4 | 5 |  | COc1cc2ccc(=O)oc2cc1O [SCOPOLETIN] | 77.4 | 8.8 | 
5 |  | 6 | CC(Cc1ccc(O)c(O)c1)C(C)Cc1ccc(O)c(O)c1 (configuration not stated) [NORDIHYDROGUAIARETIC ACID] |  |  | 78.7
6 | 22 |  | COc1ccc2c(c1)c(CC(=O)O)c(C)n2C(=O)c1ccc(Cl)cc1 [INDOMETHACIN] | 78.1 |  | 
